Assay results from publication PMC6893700 (Viruses, 2019).
Read-outs that look alike come from different tables or passages of the source.

Tests used:
[1] = in vitro; details: African green monkey
[2] = system: ZIKV strain R103451; assay: Plaque reduction inhibition assay, ZIKV R103451 in Vero E6 cells; assay type: cell-based; details: Zika virus, Vero C1008; plaque reduction, Vero E6 cells; read-out: IC50 R103451
[3] = system: ZIKV strain IbH 30656; assay: Plaque reduction inhibition assay, ZIKV IbH 30656 in Vero E6 cells; assay type: cell-based; details: Zika virus, Vero C1008; plaque reduction, Vero E6 cells; read-out: IC50 IbH 30656
[4] = target: T1, ZIKV envelope protein domain III (EDIII) protein (Zika virus, UniProt A0A024B7W1); assay type: binding; details: ELISA
T1 construct: E residues 298–409 fused with a C-terminal human Fc; made in house

[5] = system: ZIKV strain PLCal_ZV; assay: Plaque reduction inhibition assay, ZIKV PLCal_ZV in Vero E6 cells; assay type: cell-based; details: Zika virus, Vero C1008; plaque reduction, Vero E6 cells; read-out: IC50 PLCal_ZV
[6] = system: ZIKV strain PRVABC59; assay type: cell-based, Zika virus (ZIKV); details: for IC50: Zika virus, Vero C1008, ZIKV PRVABC59, Vero E6, natural product without combination, read-out: IC50 Alone
[7] = system: ZIKV strain PAN2016; assay type: cell-based, Zika virus (ZIKV); details: for IC50: Zika virus, Vero C1008, ZIKV PAN2016, Vero E6, natural product without combination, read-out: IC50 Alone
[8] = system: ZIKV (PAN2016); assay: Time-of-addition experiment, ZIKV PAN2016 in Vero E6 cells; assay type: cell-based, Zika virus (ZIKV); details: for inhibition at 30 µM: Zika virus
[9] = system: DENV-1-V1792; assay: Plaque reduction inhibition assay, DENV-1 in LLC-MK2 cells; assay type: cell-based; details: Dengue virus, DENV1
[10] = system: ZIKV strain PAN2015; assay: Plaque reduction inhibition assay, ZIKV PAN2015 in Vero E6 cells; assay type: cell-based; details: Zika virus, Vero C1008
[11] = system: Vero E6 cells; assay: Combinatorial cytotoxicity of gossypol with other natural products, CCK8; details: Vero E6, (CC50 alone)/(CC50 in the mixture)—1
[12] = system: DENV-2-V594; assay: Plaque reduction inhibition assay, DENV-2 in LLC-MK2 cells; assay type: cell-based; details: Dengue virus, DENV2
[13] = system: ZIKV mosquito strain MEX 2–81; assay: Plaque reduction inhibition assay, ZIKV MEX 2–81 in Vero E6 cells; assay type: cell-based; details: Zika virus, Vero C1008; plaque reduction, Vero E6 cells; read-out: IC50 MEX 2–81
[14] = in vitro; details: African green monkey; remark: listed apart in the source
[15] = system: Vero E6 cells
[16] = system: ZIKV strain FLR; assay type: cell-based, Zika virus (ZIKV); details: ZIKV FLR; for IC50: Zika virus, Vero C1008, Vero E6, natural product without combination, read-out: IC50 Alone
[17] = system: ZIKV strain FLR; assay: Plaque reduction inhibition assay, ZIKV FLR in Vero E6 cells; assay type: cell-based; details: Zika virus, Vero C1008; plaque reduction, Vero E6 cells; read-out: IC50 FLR
[18] = system: DENV-3-V1043; assay: Plaque reduction inhibition assay, DENV-3 in LLC-MK2 cells; assay type: cell-based; details: Dengue virus, DENV3
[19] = system: ZIKV strain PAN2016; assay: Plaque reduction inhibition assay, ZIKV PAN2016 in Vero E6 cells; assay type: cell-based; details: Zika virus, Vero C1008, Vero E6 cells; for IC50: plaque reduction, read-out: IC50 PAN2016
[20] = target: ZIKV full-length E protein (Zika virus, UniProt A0A024B7W1); assay type: binding; details: ELISA
[21] = system: DENV-4-PR 06-65-740; assay: Plaque reduction inhibition assay, DENV-4 in LLC-MK2 cells; assay type: cell-based; details: Dengue virus, DENV4
[22] = in vitro; details: rhesus monkey
[23] = system: ZIKV rhesus macaque strain MR 766; assay: Plaque reduction inhibition assay, ZIKV MR 766 in Vero E6 cells; assay type: cell-based; details: Zika virus, Vero C1008, in Macaca mulatta; plaque reduction, Vero E6 cells; read-out: IC50 MR 766
[24] = system: ZIKV strain R116265; assay: Plaque reduction inhibition assay, ZIKV R116265 in Vero E6 cells; assay type: cell-based; details: Zika virus, Vero C1008
[25] = system: ZIKV strain PRVABC59; assay: Plaque reduction inhibition assay, ZIKV PRVABC59 in Vero E6 cells; assay type: cell-based; details: Zika virus, Vero C1008; plaque reduction, Vero E6 cells

T1 sequence (A0A024B7W1 588-699): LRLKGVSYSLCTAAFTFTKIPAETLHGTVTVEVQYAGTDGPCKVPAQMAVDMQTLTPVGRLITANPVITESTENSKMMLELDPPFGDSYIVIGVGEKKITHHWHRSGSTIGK
Chain of ZIKV full-length E protein (A0A024B7W1 291-794): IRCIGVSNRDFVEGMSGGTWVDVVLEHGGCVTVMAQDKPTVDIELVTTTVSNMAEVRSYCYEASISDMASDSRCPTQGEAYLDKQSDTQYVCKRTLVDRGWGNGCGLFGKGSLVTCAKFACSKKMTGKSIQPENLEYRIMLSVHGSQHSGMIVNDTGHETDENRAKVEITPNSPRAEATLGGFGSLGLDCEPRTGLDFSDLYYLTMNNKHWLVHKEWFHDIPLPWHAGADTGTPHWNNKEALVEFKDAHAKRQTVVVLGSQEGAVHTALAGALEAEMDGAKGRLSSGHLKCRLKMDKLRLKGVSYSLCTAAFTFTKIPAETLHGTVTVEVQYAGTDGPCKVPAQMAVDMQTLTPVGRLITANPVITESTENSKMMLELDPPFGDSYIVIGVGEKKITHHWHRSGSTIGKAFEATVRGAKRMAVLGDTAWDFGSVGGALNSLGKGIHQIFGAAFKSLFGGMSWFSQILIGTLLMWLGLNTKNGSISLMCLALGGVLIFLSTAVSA

Q: Which CC50 at 3 days [1] does the source give for `COc1cc(/C=C/C(=O)CC(=O)/C=C/c2ccc(O)c(OC)c2)ccc1O` [Curcumin, curcumin] here?
A: 53.1 ± 1.83 µM

Q: What about the IC50 [2] of the same molecule?
A: 11.2 ± 0.37 µM

Q: And the IC50 [3]?
A: 13.6 ± 0.31 µM

Q: What about the “binding to ZIKV EDIII protein (in words)” value [4] of the same molecule?
A: much lower binding affinity

Q: And the IC50 [5]?
A: 10.8 ± 0.73 µM

Q: What about the “Fold of Enhancement (natural product with gossypol)” value ([6]; ZIKV PRVABC59, (IC50 alone)/(IC50 in the mixture)—1) of the same molecule?
A: 5.46

Q: What about the “CI (combination index) of gossypol with the named natural product” value (“CI (combination index) of gossypol” for short) ([6]; ZIKV PRVABC59, CI < 1 synergy) of the same molecule?
A: 0.30

Q: And the IC50 [6]?
A: 12.46 ± 0.05 µM

Q: What about the “Fold of Enhancement (natural product with gossypol)” value ([7]; ZIKV PAN2016, (IC50 alone)/(IC50 in the mixture)—1) of the same molecule?
A: 2.60

Q: And the “CI (combination index) of gossypol” value ([7]; ZIKV PAN2016, CI < 1 synergy)?
A: 0.52

Q: And the IC50 [7]?
A: 13.2 ± 0.81 µM

Q: What about the inhibition at 30 µM ([8]; Vero C1008, 1 h, read-out: inhibition of ZIKV infection, step c: cotreatment at 4 °C (attachment)) of the same molecule?
A: 75 to 100%

Q: And the inhibition at 30 µM ([8]; Vero C1008, 1 h, read-out: inhibition of ZIKV infection, step d: cotreatment at 37 °C)?
A: 75 to 100%

Q: What about the inhibition at 30 µM ([8]; Vero C1008, read-out: inhibition of ZIKV infection, step a: pretreatment of ZIKV) of the same molecule?
A: 75 to 100%

Q: And the “inhibition of ZIKV infection, step e: penetration (membrane fusion)” value ([8]; cells with ZIKV 4 °C 1 h, then natural product 37 °C 1 h, gossypol 15 µM, curcumin 30 µM, digitonin 7.5 µM, conessine 30 µM)?
A: low to no impact

Q: And the “inhibition of ZIKV infection, step f: postentry stage” value ([8]; cells with ZIKV 37 °C 1 h, then natural product 37 °C 1 h, gossypol 15 µM, curcumin 30 µM, digitonin 7.5 µM, conessine 30 µM)?
A: low to no impact

Q: And the “inhibition of ZIKV infection, step b: pretreatment of cells” value ([8]; cells with natural product 37 °C 1 h before ZIKV, gossypol 15 µM, curcumin 30 µM, digitonin 7.5 µM, conessine 30 µM)?
A: low to no impact

Q: And the IC50 [9]?
A: 9.37 ± 0.47 µM

Q: And the IC50 [10]?
A: 13.7 ± 0.37 µM

Q: What about the “Fold of Enhancement of cytotoxicity (natural product with gossypol)” value [11] of the same molecule?
A: 0.28

Q: And the “Fold of Enhancement of cytotoxicity (natural product with gossypol)” value ([11]; listed as curcumin)?
A: not enhanced

Q: And the IC50 [12]?
A: 3.07 ± 0.07 µM

Q: What about the IC50 [13] of the same molecule?
A: 5.62 ± 0.52 µM

Q: And the CC50 at 3 days [14]?
A: 52.86 ± 0.52 µM

Q: What about the “cytotoxicity in Vero E6 cells observed under a microscope” value [15] of the same molecule?
A: no obvious cytotoxicity

Q: And the “Fold of Enhancement (natural product with gossypol)” value ([16]; (IC50 alone)/(IC50 in the mixture)—1)?
A: 2.84

Q: What about the “CI (combination index) of gossypol” value ([16]; CI < 1 synergy) of the same molecule?
A: 0.49

Q: And the IC50 [16]?
A: 17.05 ± 0.08 µM

Q: And the IC50 [17]?
A: 16.6 ± 0.34 µM

Q: And the IC50 [18]?
A: 2.09 ± 0.12 µM

Q: And the IC90 ([19]; 90% plaque reduction, read-out: IC90 against ZIKV PAN2016 strain)?
A: ~47.7 µM

Q: What about the IC50 [19] of the same molecule?
A: 13.7 ± 0.72 µM

Q: And the “binding to ZIKV full-length E protein (in words)” value [20]?
A: much lower binding affinity

Q: What about the IC50 [21] of the same molecule?
A: 4.83 ± 0.24 µM

Q: What about the CC50 at 3 days [22] of the same molecule?
A: 59.4 ± 1.18 µM

Q: And the IC50 [23]?
A: 11.4 ± 0.29 µM

Q: What about the IC50 [24] of the same molecule?
A: 14 ± 0.15 µM

Q: And the IC50 [25]?
A: 12.8 ± 0.35 µM

Q: Which results are given for `CC(C)C[C@H](NC(=O)[C@H](Cc1ccccc1)NC(=O)c1cnccn1)B(O)O` [Bortezomib, bortezomib, reference compound]?
A: CC50 at 3 days [1]: 17.77 ± 0.17 µM; IC50 [3]: 9.35 ± 0.23 µM; binding to ZIKV EDIII protein (in words) [4]: did not bind; IC50 [5]: 31 ± 0.71 µM; IC50 [6]: 12.17 ± 0.07 µM; IC50 [7]: 10.65 ± 0.01 µM; IC50 [10]: 9.88 ± 0.12 µM; IC50 [13]: 7.67 ± 0.31 µM; CC50 at 3 days [14]: 17 ± 0.2 µM; IC50 [16]: 9.7 ± 0.76 µM; IC50 [17]: 9.62 ± 0.59 µM; IC50 [19]: 9.75 ± 0.03 µM; binding to ZIKV full-length E protein (in words) [20]: did not bind; IC50 [23]: 9.51 ± 0.26 µM; IC50 [24]: 8.94 ± 0.1 µM; IC50 [25]: 11.7 ± 0.82 µM
